# From patent publication US9011880B2, “Compounds and methods for treating cancer” (IGF Oncology, LLC, priority 2003, dated 2015)
# Where two headings read alike, the source gives them in different places.
# Assays:
# breast cancer cells [1] = conditions: cells incubated with insulin; cited from earlier work
# [2] = system: mouse fibrosarcoma cell line FSAII; assay: In vitro growth inhibition of FSAII cells (cell-counting kit-8); type: cell-based; conditions: minimal medium, 2 nM to 2 μM, 72 hours
# Description: In vitro growth inhibition. […] The cells were grown in a 5% CO2 atmosphere at 37° C. in 100 cm^2 plastic tissue culture dishes (20 ml medium). Cells were passed every 4-6 days and seeded at 2×10^6 cells per plate. Cells were harvested by washing once in Hank's balanced salt solution, and then digesting with 3 ml of trypsin-EDTA for 3-10 minutes until cells had detached. Trypsinization was stopped by adding rich medium. The harvested cells were washed by centrifugation and resuspended in rich medium, and then plated in a 96-well plate at 12,000 cells per well in rich medium. Plates were incubated in the rich medium 16 hours and then transferred to minimal medium (100 μl/well), which lacked serum and thus lacked insulin and IGF and other growth factors. Minimal medium was RPMI supplemented with 10 μg/ml transferrin (iron-loaded) and 200 μg/ml bovine serum albumin. […] Each condition was tested in triplicate. After 72 hours incubation at 37° C., cell proliferation was assayed by the cell-counting kit-8, based on tetrazolium dye reduction, similar to the MTT assay (Dojindo Molecular Technologies, Gaithersburg, Md.).
# LNCAP cells [3] = assay: In vitro proliferation assay, LNCaP (Example 8); type: cell-based, human
# Description: LNCaP, MCF7 and MCF7-L cell lines were plated, respectively, in a 96-well plate at 5,000 cells per well in RPMI+glutamine+10% FCS medium in 100 μl. After 24 hours, 100 μl fresh medium was added containing no drug (control), IGF-MTX or MTX at the indicated concentration.
# breast cancer cells [4] = conditions: administered with insulin; cited from earlier work
# [5] = humans, cited from earlier work
# MCF7-L tumors = assay: MCF7-L xenograft tumor growth in nu/nu mice; type: in vivo, mouse; conditions: day 22; IGF-MTX 10 nmol of MTX/g or free MTX 40 nmol/g, tail vein, days 0 and 5
# Description: MCF7 cells (human breast adenocarcinoma cell line) were grown in Eagle's minimal essential medium supplemented with 0.1 mg/ml insulin and 10% FCS. The estrogen-dependent MCF7-L cell line was a gift from Deepali Sachdev of the University of Minnesota. MCF7-L cells were grown in modified IMEM medium (Invitrogen, Carlsbad, Calif., USA) supplemented with 0.1 mg/ml insulin. LNCaP cells (metastatic human prostatic adenocarcinoma) were grown in RPMI supplemented with glutamine and 10% FCS (Invitrogen, Carlsbad, Calif., USA). Cells were grown at 37° C. in a 5% CO2 humidified atmosphere. In each case, cells were grown to approximately two-thirds confluence, harvested by trypsinization, washed with rich medium and then washed twice with PBS and resuspended in phosphate buffered saline in BD matrigel matrix (Becton Dickinson, Franklin Lakes, N.J., USA). Cells were injected intradermally in mice on the back. An estrogen pellet (0.5 mg estradiol, 60-day release, Innovative Research of America, Sarasota, Fla., USA) was implanted subcutaneously between the shoulder blades two days before implanting MCF7 and MCF7-L cells. MCF7 and MCF7-L cells were implanted in 8-week-old female nu/nu mice. LNCaP cells were implanted in 8-week-old male nu/nu mice. […] MTX was dissolved in PBS. Untreated vehicle controls received 2 mM HCl, 1% glycerol. […]
# LNCAP cells [6] = assay: LNCAP proliferation in vitro (Example 5, cell counting kit-8)
# Description: LNCAP cells were plated in a 96-well plate at 3,000 cells per well in RPMI medium supplemented with 10% fetal bovine serum (FBS). After incubation overnight, the medium in the wells was replaced with 100 μl per well of RPMI supplemented with 0.1% FBS. […] After incubation for 4 days, cell proliferation was assayed with the cell counting kit-8 (Dojindo Molecular Technologies, Gaithersburg, Md.).
# LNCAP tumors = type: in vivo, mouse; conditions: days 0, 4, 8, 18, 22 and 26
# Description: LNCAP testing. Eight-week old athymic male mice (nu/nu) were injected subcutaneously in the thigh with 1 million LNCAP cells in serum-free medium. Tumors were allowed to grow until they reached an average size of 100 mm^3. […] A fifth group of mice was untreated controls.
# [7] = IGF-MTX- and MTX-related toxicity in mice (ill effects, body weight); conditions: mice implanted with MCF7-L cells, n = 5/group
# Description: (§1) MCF7 cells (human breast adenocarcinoma cell line) were grown in Eagle's minimal essential medium supplemented with 0.1 mg/ml insulin and 10% FCS. The estrogen-dependent MCF7-L cell line was a gift from Deepali Sachdev of the University of Minnesota. MCF7-L cells were grown in modified IMEM medium (Invitrogen, Carlsbad, Calif., USA) supplemented with 0.1 mg/ml insulin. LNCaP cells (metastatic human prostatic adenocarcinoma) were grown in RPMI supplemented with glutamine and 10% FCS (Invitrogen, Carlsbad, Calif., USA). Cells were grown at 37° C. in a 5% CO2 humidified atmosphere. In each case, cells were grown to approximately two-thirds confluence, harvested by trypsinization, washed with rich medium and then washed twice with PBS and resuspended in phosphate buffered saline in BD matrigel matrix (Becton Dickinson, Franklin Lakes, N.J., USA). Cells were injected intradermally in mice on the back. An estrogen pellet (0.5 mg estradiol, 60-day release, Innovative Research of America, Sarasota, Fla., USA) was implanted subcutaneously between the shoulder blades two days before implanting MCF7 and MCF7-L cells. MCF7 and MCF7-L cells were implanted in 8-week-old female nu/nu mice. LNCaP cells were implanted in 8-week-old male nu/nu mice. […] MTX was dissolved in PBS. Untreated vehicle controls received 2 mM HCl, 1% glycerol. Drug was administered intravenously by tail-vein injection in a volume of 12.5 μl per gram mouse weight. All studies were approved by the University of Minnesota Animal Care and Use Committee and conformed to relevant ethical guidelines.
# MCF7 tumors = assay: MCF7 xenograft tumor growth in nu/nu mice; type: in vivo, mouse; conditions: 40 nmol/g intravenous, days 0, 4 and 8; 12 days of observation
# Description: as §1
# Three in vivo studies were performed to assess the targeting of MTX with long-R3-IGF-1. In the initial preliminary study, breast cancer MCF7 cells were implanted intradermally in the backs of nude mice.
# FSAII tumors = assay: FSAII tumor growth in vivo in mice; design: species or system mouse; conditions: intraperitoneally, days 0, 2 and 5
# Description: FSAII testing. Six-week old female mice were injected subcutaneously in the thigh with 200,000 FSAII cells each in serum-free medium. Tumors were allowed to grow until they reached an average volume of 100 mm^3 (calculated as length×breadth^2). At that time, treatment was initiated. […] A fifth group of mice was untreated controls. Each group contained five mice. Mice were treated on days 0, 2, and 5. Tumor growth was measured every second day.
# [8] = low dose 15 μmoles/kg methotrexate
compound,measurement,setting,value
CN(Cc1cnc2nc(N)nc(N)c2n1)c1ccc(C(=O)N[C@@H](CCC(=O)O)C(=O)O)cc1 [methotrexate],stimulation of uptake,breast cancer cells [1],50%
same,inhibition of FSAII proliferation,[2],inhibited FSAII proliferation
same,inhibition of proliferation at highest tested concentration,LNCAP cells [3]; 2000 nM,significantly greater inhibition than IGF-MTX
same,inhibition of proliferation compared to untreated control cells,LNCAP cells [3]; LNCaP,inhibited proliferation of LNCaP cells
same,IC50,"LNCAP cells [3]; free MTX, LNCaP, RPMI + 10% FCS, 48 hours with drug, IGF-MTX as concentration of MTX groups",~0.4 µM
same,factor of lower methotrexate concentration for the same percent cell killing than methotrexate alone,breast cancer cells [4],10^4
same,maximum safe dosage,[5]; cumulative per 3 weeks,about 500 micromoles per meter squared per 3 weeks
same,minimum effective dosage,[5]; lowest dosage usually used,about 130 micromoles per meter squared per 3 weeks
same,MCF7-L tumor growth inhibition,MCF7-L tumors,inhibited about equally
same,Cell number (relative units),"LNCAP cells [6]; Minimal med. (0.1% FBS), MTX conc. 2 nM",.653 ± .046 relative units
same,Cell number (relative units),"LNCAP cells [6]; Minimal med. (0.1% FBS), MTX conc. 8 nM",.737 ± .043 relative units
same,Cell number (relative units),"LNCAP cells [6]; Minimal med. (0.1% FBS), MTX conc. 32 nM",.994 ± .226 relative units
same,Cell number (relative units),"LNCAP cells [6]; Minimal med. (0.1% FBS), MTX conc. 125 nM",.835 ± .048 relative units
same,Cell number (relative units),"LNCAP cells [6]; Minimal med. (0.1% FBS), MTX conc. 500 nM",.706 ± .051 relative units
same,Cell number (relative units),"LNCAP cells [6]; Minimal med. (0.1% FBS), MTX conc. 2000 nM",0.418 ± .026 relative units
same,Cell number (relative units),"LNCAP cells [6]; Rich medium (10% FBS), MTX conc. 2 nM",0.724 ± .015 relative units
same,Cell number (relative units),"LNCAP cells [6]; Rich medium (10% FBS), MTX conc. 8 nM",0.596 ± .071 relative units
same,Cell number (relative units),"LNCAP cells [6]; Rich medium (10% FBS), MTX conc. 32 nM",1.017 ± .033 relative units
same,Cell number (relative units),"LNCAP cells [6]; Rich medium (10% FBS), MTX conc. 125 nM",0.223 ± .012 relative units
same,Cell number (relative units),"LNCAP cells [6]; Rich medium (10% FBS), MTX conc. 500 nM",0.163 ± .009 relative units
same,minimal inhibitory concentration,LNCAP cells [6]; minimal medium containing 0.1% serum,about 2000 nM
same,minimal inhibitory concentration,LNCAP cells [6]; rich medium containing 10% serum,about 125 nM
same,effect on LNCAP tumor growth,LNCAP tumors; high dose 40 μmoles/kg methotrexate,appeared to have no effect
same,effect on LNCAP tumor growth,LNCAP tumors; [8],appeared to have no effect
same,"Average weight of mice, Day 4",[7],19.5 g
same,"Average weight of mice, Day 20",[7],20.8 g
same,"Average weight of mice, Day 0",[7]; measured immediately before treatment,19.2 g
same,MCF7 tumor growth,MCF7 tumors,tumors continued to grow
same,effect on FSAII tumor growth,FSAII tumors; high dose 60 μmoles/kg methotrexate,Neither the high or low dose of methotrexate had any apparent effect
same,effect on FSAII tumor growth,FSAII tumors; [8],Neither the high or low dose of methotrexate had any apparent effect
